Results taken from article PMC11342346 (ACS Bio & Med Chem Au, 2024).
*1 amine or outer side, *2 acyl side, *3 side chain or, on linkers, in order; H or OH if unused. Where a SMILES comes first, the peptide text is derived from it. Bridges are numbered along the chain shown (N, C = ends). Roman numbers before positions name the chains, in order. Where no end group is shown, it is not given here. The star is where a group is joined. CO(CH2CH2O)5CH2CH2CO = O=C(CCOCCOCCOCCOCCOCCC(=O)[*:2])[*:1]; PEG12 = NCCOCCOCCOCCOCCOCCOCCOCCOCCOCCOCCOCCOCCC(=O)O; Biotin = O=C1N[C@H]2[C@H](CS[C@H]2CCCCC(=O)*)N1; PEG2 = NCCOCCOCCC(=O)O

Key:
[1] = tested on: Ring Finger Protein 43 (RNF43); assay type: binding; conditions: SPR, DCP immobilized on streptavidin sensor, RNF43 as analyte
[2] = tested on: Wnt signaling in HEK293 TOPbrite (TB) luciferase reporter cells; assay type: cell-based; conditions: three independent runs
biotin-PEG12-MK1-3.6.10S = test: SPR
biotin-PEG2-MK1-3.6.10S = test: SPR

human ZNRF3 (free, in solution), sequence (Q9ULT6 56-936): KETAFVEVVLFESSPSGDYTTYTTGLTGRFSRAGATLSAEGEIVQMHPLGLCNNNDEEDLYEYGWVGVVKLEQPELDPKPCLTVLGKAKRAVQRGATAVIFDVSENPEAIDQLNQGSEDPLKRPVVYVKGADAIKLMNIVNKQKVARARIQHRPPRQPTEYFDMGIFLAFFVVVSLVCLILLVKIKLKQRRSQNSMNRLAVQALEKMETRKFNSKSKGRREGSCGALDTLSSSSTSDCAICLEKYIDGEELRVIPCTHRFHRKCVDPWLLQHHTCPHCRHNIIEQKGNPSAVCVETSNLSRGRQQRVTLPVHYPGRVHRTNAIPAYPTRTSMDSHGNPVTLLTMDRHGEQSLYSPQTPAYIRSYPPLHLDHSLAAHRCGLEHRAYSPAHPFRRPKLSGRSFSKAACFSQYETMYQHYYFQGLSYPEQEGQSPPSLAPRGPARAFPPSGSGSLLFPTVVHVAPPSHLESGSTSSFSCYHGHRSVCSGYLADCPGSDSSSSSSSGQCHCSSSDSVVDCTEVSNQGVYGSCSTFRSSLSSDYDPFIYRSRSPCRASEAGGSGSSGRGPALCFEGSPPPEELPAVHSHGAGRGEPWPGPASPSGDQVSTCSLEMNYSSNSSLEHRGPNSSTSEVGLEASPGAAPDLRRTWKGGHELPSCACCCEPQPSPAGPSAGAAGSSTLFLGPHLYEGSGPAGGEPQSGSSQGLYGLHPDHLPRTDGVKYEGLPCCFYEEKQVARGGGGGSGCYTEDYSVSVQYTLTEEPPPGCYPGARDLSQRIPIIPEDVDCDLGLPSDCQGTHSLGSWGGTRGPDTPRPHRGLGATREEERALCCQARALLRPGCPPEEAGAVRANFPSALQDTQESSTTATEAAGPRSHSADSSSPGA

For `CC[C@H](C)[C@@H]1NC(=O)[C@@H]2CCCN2C(=O)[C@H](CCCNC(=N)N)NC(=O)[C@H](CCC(=O)O)NC(=O)[C@@H]2CSSC[C@@H]3NC(=O)[C@H](CCCCN)NC(=O)[C@H](CCCCN)NC(=O)[C@H](CC(N)=O)NC(=O)[C@H](CC(C)C)NC(=O)[C@H](CCCNC(=N)N)NC(=O)[C@H](CC(N)=O)NC(=O)[C@@H](NC(=O)[C@H](CO)NC(=O)CCOCCOCCNC(=O)CCCC[C@@H]4SC[C@@H]5NC(=O)N[C@@H]54)CSSC[C@H](NC(=O)[C@H](CSSC[C@@H](C(=O)N[C@@H](CCCNC(=N)N)C(=O)N4CCC[C@H]4C(=O)N[C@@H](CC(=O)O)C(=O)N[C@H](C(=O)NCC(=O)N4CCC[C@H]4C(=O)O)C(C)C)NC(=O)[C@H](Cc4ccc(O)cc4)NC(=O)[C@H](CCSC)NC(=O)[C@H](Cc4ccccc4)NC(=O)[C@H](CCCCN)NC(=O)[C@H](Cc4c[nH]c5ccccc45)NC(=O)CNC1=O)NC(=O)[C@H](CC(=O)O)NC(=O)[C@H](C)NC(=O)[C@H](CC(=O)O)NC(=O)[C@H](CO)NC(=O)[C@H](CC(N)=O)NC3=O)C(=O)N[C@@H](C)C(=O)N[C@@H](CC(N)=O)C(=O)N[C@@H](CCCCN)C(=O)N[C@@H](CCC(=O)O)C(=O)N[C@@H](CCCCN)C(=O)N2` [biotin-PEG2-MK1-3.6.10S] ({Biotin-PEG2}-SCNRLNKKCNSDADCCANKEKCERPIGWKFMYCRPDVGP-OH; disulfide 2-16, 9-22, 15-33; C-terminus assumed), the “binding to RNF43” value [1] was “did not bind”.

For `CC[C@H](C)[C@@H]1NC(=O)[C@@H]2CCCN2C(=O)[C@H](CCCNC(=N)N)NC(=O)[C@H](CCC(=O)O)NC(=O)[C@@H]2CSSC[C@@H]3NC(=O)[C@H](CCCCN)NC(=O)[C@H](CCCCN)NC(=O)[C@H](CC(N)=O)NC(=O)[C@H](CC(C)C)NC(=O)[C@H](CCCNC(=N)N)NC(=O)[C@H](CC(N)=O)NC(=O)[C@@H](NC(=O)[C@H](CO)NC(=O)CCOCCOCCOCCOCCOCCOCCOCCOCCOCCOCCOCCOCCNC(=O)CCCC[C@@H]4SC[C@@H]5NC(=O)N[C@@H]54)CSSC[C@H](NC(=O)[C@H](CSSC[C@@H](C(=O)N[C@@H](CCCNC(=N)N)C(=O)N4CCC[C@H]4C(=O)N[C@@H](CC(=O)O)C(=O)N[C@H](C(=O)NCC(=O)N4CCC[C@H]4C(=O)O)C(C)C)NC(=O)[C@H](Cc4ccc(O)cc4)NC(=O)[C@H](CCSC)NC(=O)[C@H](Cc4ccccc4)NC(=O)[C@H](CCCCN)NC(=O)[C@H](Cc4c[nH]c5ccccc45)NC(=O)CNC1=O)NC(=O)[C@H](CC(=O)O)NC(=O)[C@H](C)NC(=O)[C@H](CC(=O)O)NC(=O)[C@H](CO)NC(=O)[C@H](CC(N)=O)NC3=O)C(=O)N[C@@H](C)C(=O)N[C@@H](CC(N)=O)C(=O)N[C@@H](CCCCN)C(=O)N[C@@H](CCC(=O)O)C(=O)N[C@@H](CCCCN)C(=O)N2` [biotin-PEG12-MK1-3.6.10S] ({Biotin-PEG12}-SCNRLNKKCNSDADCCANKEKCERPIGWKFMYCRPDVGP-OH; disulfide 2-16, 9-22, 15-33; C-terminus assumed), the “binding to RNF43” value [1] was “did not bind”.

In the case of “I: SCNRLNKKCNSDADCCANKEKCERPIGWKFMYCRPDVGP / II: SCNRLNKKCNSDADCCANKEKCERPIGWKFMYCRPDVGP (disulfide I:2-I:16, I:9-I:22, I:15-I:33, II:2-II:16, II:9-II:22, II:15-II:33; linker I:N-II:N via CO(CH2CH2O)5CH2CH2CO) [di-MK1-3.6.10S]”, the “activation of Wnt signaling in reporter assay (in words)” value [2] is reported as “able to induce Wnt signaling activation to a similar extent to the synthetic MK1-3.6.10 dimer”.

“human ZNRF3 (free, in solution) (from UniProt Q9ULT6 56-936) (natural protein)” gave a Kd (biotin-PEG12-MK1-3.6.10S) of 118 nM and a Kd (biotin-PEG2-MK1-3.6.10S) of 149 nM.
